Values of other authors as cited in patent publication US8133908B2, “Heteroaryl derivatives of N-{[(1S,4S,6S)-3-(2-pyridinylcarbonyl)-3-azabicyclo[4.1.0]hept-4-yl]methyl}-2-amine” (Glaxo Group Limited, priority 2008, dated 2012).
No end group written: not given here.

How the values were obtained:
orexin receptor = conditions: rats
orexin-A receptor(s) = conditions: central administration, freely-feeding rats, 4 hour time period
orexin receptors = conditions: rats, central administration at the onset of the normal sleep period

| Molecule | hedonic eating (orexin receptor) | high-fat pellet self-administration (orexin receptor) | increase of food intake over control rats receiving vehicle (orexin-A receptor(s)) | arousal (orexin receptors) |
| --- | --- | --- | --- | --- |
| Cc1nc2ccc(NC(=O)Nc3ccnc4cccnc34)cc2o1 [SB334867] | potently reduced | attenuated |  |  |
| orexin-A: ligand for the orexin-1 receptor; an agonist of the orexin receptors (QPLPDCCRQKTCSCRLYELLHGAGNHAAGILTL; ends and bridges not checked; cysteine pairing not given here; UniProt O43612 34-66, looked up) |  |  | approximately four-fold | dose-related increase in arousal |
